Experimental data published in patent US8629272B2, “Tricyclic pyrimidine derivatives as wnt antagonists” (Deutsches Krebsforschungszentrum, priority 2009, dated 2014).

Key:
[1] = system: human colon carcinoma cells HCT116; assay: Antiproliferative activity against HCT116, cell count; type: cell-based
Protocol: For examination of cell line-specific cytotoxicity, compounds were applied to human colorectal cancer cells (HCT116, denoted (1); SW480, denoted (2); Dld-1, denoted (3)) and human fibroblasts (HFF-1, denoted (4); HS-68, denoted (5)), cultured in Mc Coy's (1) and Dulbecco's Modified Eagles Medium (2-5), supplemented with 10% ((1)-(3)) and 20% ((4), (5)) fetal calf serum and 1% penicillin/streptomycin. Cells were grown in T75 flasks at 37° C., 5% CO2 and trypsinized when 60-80% confluent by adding 2 ml of 0.25% Trypsin-EDTA solution. Cells were then re-suspended into culture medium and approx. 750 cells, suspended in 45 microl medium, were plated into each well of a black 384-well plate for fluorescence imaging experiments. 24-36 hr later 5 microl compound solution (100 microM compound dissolved in ultra pure water containing 1% DMSO), were added to achieve a final concentration of 10 microM and were incubated for at least 72 hr. Compound incubation was terminated by (a) fixation and (b) permeabilisation of cells, followed by (c) fluorescence labeling of cell nuclei for cytometric quantification or by immunocytochemistry for microscopic evaluation of cell morphology. The three steps were performed by replacing the solution of the previous step in each well of a 384-well plate by (a) 30 microl PBS (phosphate buffered saline) containing 5% PFA (paraformaldehyde), (b) 30 microl PBS containing 0.2% TritonX-100 and (c) 10 microl PBS containing Hoechst-33342 for cytometry or Hoechst-33342, FITC (fluorescein isothiocyanate-) labeled α-tubulin antibodies and TRITC-(tetramethylrhodamine isothiocyanate-) labeled phalloidin antibodies for microscopy. Solutions were incubated for 15 (a,b) and 30 min (c) in the dark at room temperature. Cells were washed twice between each step with 30 microl PBS. The assay system was miniaturized and adapted to automated workflow using liquid-handling robotics.
Cell line-specific cytotoxicity was quantified by counting the number of Hoechst labeled nuclei per well of a 384-well plate using a plate cytometer. Data obtained with the cytometer was analysed using standard data analysis software.
The examination of the antiproliferative activity against human colon carcinoma cells HCT116 was carried out in analogy to example 35. […] Compounds of the present invention have potent antiproliferative activity against human colon carcinoma cells as shown for HCT116 in Table 6.

HepG2 = assay: Cytotoxicity in HepG2, CellTiterGlo; type: cell-based; conditions: 24 h
Protocol: For examination of cytotoxicity in these cancer cell lines the commercial available CellTiterGlo® Reagent (Promega, USA) was used according to the manufactor. Compounds were applied to Hek293T (denoted (1)) or HepG2 (denoted (2)), cultured in Dulbecco's Modified Eagles Medium, supplemented with 10% fetal calf serum and 1% penicillin/streptomycin. Cells were grown in T75 flasks at 37° C., 5% CO2 and trypsinized when 60-80% confluent by adding 2 ml of 0.25% Trypsin-EDTA solution. Cells were then re-suspended into culture medium yielding approx. 4000 cells (1) or 4500 cells (2), suspended in 30 microl medium. 48 h after cell seeding, compounds were added to yield the desired final concentrations. 24 h after compound addition cytotoxicity was evaluated. For this purpose the media was removed and CellTiterGlo® was added according to the manufactors manual. In this assay the luciferase emission readout is directly correlated with the cellular amount of ATP, low luciferase emission thus is reflecting cytotoxicity of a compound. For the evaluation of the IC50 the compound was applied in increasing concentrations yielding final concentrations per well of 5 nM-100 microM.

SMILES	Normalized cell count (HCT 116) ([1]; 0.005 microM)	Normalized cell count (HCT 116) ([1]; 0.015 microM)	Normalized cell count (HCT 116) ([1]; 0.046 microM)	Normalized cell count (HCT 116) ([1]; 0.137 microM)	Normalized cell count (HCT 116) ([1]; 0.412 microM)	Normalized cell count (HCT 116) ([1]; 1.235 microM)	Normalized cell count (HCT 116) ([1]; 3.704 microM)	Normalized cell count (HCT 116) ([1]; 11.111 microM)	Normalized cell count (HCT 116) ([1]; 33.333 microM)	Normalized cell count (HCT 116) ([1]; 100.000 microM)	Normalized toxicity values (HepG2) (HepG2; 0.005 microM)	Normalized toxicity values (HepG2) (HepG2; 0.015 microM)	Normalized toxicity values (HepG2) (HepG2; 0.046 microM)	Normalized toxicity values (HepG2) (HepG2; 0.137 microM)	Normalized toxicity values (HepG2) (HepG2; 0.412 microM)	Normalized toxicity values (HepG2) (HepG2; 1.235 microM)	Normalized toxicity values (HepG2) (HepG2; 3.704 microM)	Normalized toxicity values (HepG2) (HepG2; 11.111 microM)	Normalized toxicity values (HepG2) (HepG2; 33.333 microM)	Normalized toxicity values (HepG2) (HepG2; 100.000 microM)
CCOC(=O)C1=C(C)Nc2c(c3nnc(-c4cccc(OC)c4)n3c(=O)n2-c2ccccc2)C1c1ccccc1 (stereo not drawn) [Example 15, 3-(3-Methoxy-phenyl)-7-methyl-4-oxo-5,9-diphenyl-4,5,6,9-tetrahydro-1,2,3a,5,6-pentaaza-cyclopenta[a]naphthalene-8-carboxylic acid ethyl ester]	1	1.039	1.013	0.9313	0.9219	0.865	0.7235	0.2716	0.257	0.1496	1.0700	1.0465	1.1350	0.9913	1.0390	0.9878	1.1575	1.1825	1.2000	1.5075
CCOC(=O)C1=C(c2ccccc2)c2c(n(-c3ccccc3)c(=O)n3c(-c4cccc(OC)c4)nnc23)NC1C (stereo not drawn) [Example 16, 3-(3-Methoxy-phenyl)-7-methyl-4-oxo-5,9-diphenyl-4,5,6,7-tetrahydro-1,2,3a,5,6-pentaaza-cyclopenta[a]naphthalene-8-carboxylic acid ethyl ester]	1	1.063	1.163	1.06	1.067	1.125	1.2	1.231	0.52	0.5801	1.0275	0.9130	0.9210	0.9210	0.9183	0.9173	1.0303	1.1325	1.2425	1.1200
CCOC(=O)C1=C(c2ccccc2)c2c(n(-c3ccccc3)c(=O)n3c(-c4ccc(OC)cc4)nnc23)NC1C (stereo not drawn) [Example 18]	1	0.9377	0.9859	0.8603	0.9166	0.8399	0.4154	0.1595	0.1555	0.1892	1.1400	1.0110	1.0350	0.9173	0.9185	0.9953	0.9855	1.0800	1.1125	1.1375
